Test results taken from patent US10202350B2, “MCT4 inhibitors for treating disease” (Vettore, LLC, priority 2015, dated 2019).

Assays:
MCT4 = MCT4 (Homo sapiens (Human), UniProt O15427); experiment: MCT4-mediated lactate transport in MDA-MB-231 breast cancer cells; format: cell-based; conditions: MDA-MB-231 cells, native MCT4; 50 mM L-lactate
Method: (§1) 10 μL of a 30 mM DMSO stock of BCECF-AM ester (Life Technologies) is added and the cells are incubated at 37° C. for 5 min. The cells are pelleted (300 g, 5 min), washed once with 1 mL Tyrode's Solution, pH 7.4, re-pelleted (300 g, 5 min), and resuspended in 1 mL Tyrode's Solution, pH 7.4.
(§2) 2.5 μL BCECF-loaded cells, along with either 10 μL DMSO or 100×compound in DMSO, are added to 937.5 μL of Tyrode's Solution in a quartz 1.0 mL cuvette (PerkinElmer, B0631116). […] After establishing baseline BCECF fluorescence (around 10-20 s), 50 μL of 1 M sodium L-lactate (Sigma-Aldrich) is added to the cuvette (final concentration: 50 mM) and rapidly mixed. The time-dependent decrease in BCECF fluorescence (490/440 ratio) may be fit to an exponential decay curve (Prism GraphPad) to determine the rate of lactate transport.
Preparation of BCECF-loaded cells and lactate transport activity may be determined as described for Assay 1.

MCT1 = MCT1 (Homo sapiens (Human), UniProt P53985); experiment: MCT1-mediated lactate transport in BT20 breast cancer cells; format: cell-based; conditions: native MCT1, 10 mM L-lactate, Table 3
MCT1, sequence (P53985 whole entry): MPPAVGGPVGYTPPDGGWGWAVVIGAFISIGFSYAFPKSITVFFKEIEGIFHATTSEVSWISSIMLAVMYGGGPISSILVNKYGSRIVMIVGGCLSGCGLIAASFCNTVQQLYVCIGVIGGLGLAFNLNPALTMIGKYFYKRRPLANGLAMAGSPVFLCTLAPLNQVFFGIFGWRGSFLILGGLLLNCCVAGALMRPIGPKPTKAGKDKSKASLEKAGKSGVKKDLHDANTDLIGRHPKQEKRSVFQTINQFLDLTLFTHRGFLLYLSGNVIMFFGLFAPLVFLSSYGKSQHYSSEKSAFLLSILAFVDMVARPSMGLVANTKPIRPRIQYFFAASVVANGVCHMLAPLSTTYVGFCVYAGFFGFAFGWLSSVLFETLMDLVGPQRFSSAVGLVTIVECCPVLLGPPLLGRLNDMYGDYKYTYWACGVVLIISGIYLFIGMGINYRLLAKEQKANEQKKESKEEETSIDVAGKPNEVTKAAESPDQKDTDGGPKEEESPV
MCT1, sequence (P35613 140-385 partner): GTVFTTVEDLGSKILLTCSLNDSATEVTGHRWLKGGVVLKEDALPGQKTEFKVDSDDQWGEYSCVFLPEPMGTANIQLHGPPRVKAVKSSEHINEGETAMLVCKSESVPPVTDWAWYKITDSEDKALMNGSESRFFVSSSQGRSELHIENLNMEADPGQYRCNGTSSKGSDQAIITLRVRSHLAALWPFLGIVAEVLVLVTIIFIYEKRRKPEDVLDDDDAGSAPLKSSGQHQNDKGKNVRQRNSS
Method: as §1, §2
Assay 4: MCT1-Mediated Lactate Transport in BT20 Breast Cancer Cells.
Preparation of BCECF loaded cells are as described for Assay 1. Lactate transport assay is as described for Assay 1, except 10 mM L-lactate (rather than 50 mM) is added.

MCT4, sequence (O15427 whole entry, looked up): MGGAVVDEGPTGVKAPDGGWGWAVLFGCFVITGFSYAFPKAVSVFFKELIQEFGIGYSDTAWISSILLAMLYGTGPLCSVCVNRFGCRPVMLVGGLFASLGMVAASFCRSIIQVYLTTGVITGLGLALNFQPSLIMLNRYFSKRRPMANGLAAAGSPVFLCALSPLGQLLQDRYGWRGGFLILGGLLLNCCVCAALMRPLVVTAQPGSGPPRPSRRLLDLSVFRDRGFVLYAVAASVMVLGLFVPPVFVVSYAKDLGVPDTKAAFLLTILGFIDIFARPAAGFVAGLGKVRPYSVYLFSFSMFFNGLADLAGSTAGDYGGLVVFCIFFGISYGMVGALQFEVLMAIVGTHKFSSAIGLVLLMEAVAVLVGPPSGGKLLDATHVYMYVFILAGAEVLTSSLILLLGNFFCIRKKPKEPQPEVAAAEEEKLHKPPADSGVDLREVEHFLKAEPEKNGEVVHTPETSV
MCT4, sequence (P35613 whole entry partner, looked up): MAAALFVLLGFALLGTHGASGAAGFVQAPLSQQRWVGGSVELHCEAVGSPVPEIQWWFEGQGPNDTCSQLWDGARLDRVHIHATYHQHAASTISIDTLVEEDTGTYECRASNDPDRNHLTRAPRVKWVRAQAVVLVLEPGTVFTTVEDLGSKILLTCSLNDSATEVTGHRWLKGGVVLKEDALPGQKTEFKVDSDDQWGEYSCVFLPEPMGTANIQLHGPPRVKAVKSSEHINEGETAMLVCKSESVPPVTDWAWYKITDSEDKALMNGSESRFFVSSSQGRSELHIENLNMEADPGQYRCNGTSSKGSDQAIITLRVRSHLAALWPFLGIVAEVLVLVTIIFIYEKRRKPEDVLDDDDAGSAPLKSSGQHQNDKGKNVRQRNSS

Compound: CNc1cccc(-c2cc(COC(C)(C)C(=O)O)nn2Cc2ccccc2Cl)c1 [Example 72, 2-([1-[(2-Chlorophenyl)methyl]-5-[3-(methylamino)phenyl]-1H-pyrazol-3-yl]methoxy)-2-methylpropanoic Acid]
- IC50 (MCT4): 220 nM
- IC50 (MCT1): 45000 nM

Compound: CC(C)(OCc1cc(-c2cccc(OCC3CC3)c2)n(Cc2ccccc2Cl)n1)C(=O)O [Example 33, 2-[[1-[(2-Chlorophenyl)methyl]-5-[3-(cyclopropylmethoxy)phenyl]pyrazol-3-yl]methoxy]-2-methyl-propanoic acid]
- IC50 (MCT4): 3.2 nM
- IC50 (MCT1): 9100 nM

Compound: CC(C)(OCc1cc(-c2cccc(OCC3CCCC3)c2)n(Cc2ccccc2Cl)n1)C(=O)O [Example 44, 2-[[1-[(2-Chlorophenyl)methyl]-5-[3-(cyclopentylmethoxy)phenyl]pyrazol-3-yl]methoxy]-2-methyl-propanoic acid]
- IC50 (MCT4): 1.1 nM

Compound: CC(C)(OCc1cc(-c2cccc(OCC(F)(F)F)c2)n(Cc2ccccc2Cl)n1)C(=O)O [Example 43, 2-[[1-[(2-Chlorophenyl)methyl]-5-[3-(2,2,2-trifluoroethoxy)phenyl]pyrazol-3-yl]methoxy]-2-methyl-propanoic acid]
- IC50 (MCT4): 13 nM
- IC50 (MCT1): > 33000 nM

Compound: CC(C)CNc1cccc(-c2cc(COC(C)(C)C(=O)O)nn2Cc2ccccc2Cl)c1 [Example 73, 2-([1-[(2-chlorophenyl)methyl]-5-[3-[(2-methylpropyl)amino]phenyl]-1H-pyrazol-3-yl]methoxy)-2-methylpropanoic Acid]
- IC50 (MCT4): 21 nM
- IC50 (MCT1): > 11000 nM

Compound: COc1cccc(-c2cc(COC(C)(C)C(=O)O)nn2Cc2ccccc2C)c1 [Example 32, 2-[[5-(3-Methoxyphenyl)-1-(o-tolylmethyl)pyrazol-3-yl]methoxy]-2-methyl-propanoic acid]
- IC50 (MCT4): 79 nM
- IC50 (MCT1): 83000 nM

Compound: CC(C)COc1cccc(-c2cc(COC(C)(C)C(=O)O)nn2Cc2ccccc2)c1 [Example 60, 2-([1-Benzyl-5-[3-(2-methylpropoxy)phenyl]-1H-pyrazol-3-yl]methoxy)-2-methylpropanoic Acid]
- IC50 (MCT4): 13 nM
- IC50 (MCT1): 44000 nM

Compound: COc1ccccc1Cn1nc(COC(C)(C)C(=O)O)cc1-c1cccc(OCC(C)C)c1 [Example 61, 2-([1-[(2-methoxyphenyl)methyl]-5-[3-(2-methylpropoxy)phenyl]-1H-pyrazol-3-yl]methoxy)-2-methylpropanoic acid]
- IC50 (MCT4): 3.1 nM
- IC50 (MCT1): 11000 nM

Compound: CC(C)COc1cccc(-c2cc(COC(C)(C)C(=O)O)nn2Cc2ccccc2F)c1 [Example 26, 2-[[1-[(2-Fluorophenyl)methyl]-5-(3-isobutoxyphenyl)pyrazol-3-yl]methoxy]-2-methyl-propanoic acid]
- IC50 (MCT4): 9.4 nM
- IC50 (MCT1): 27000 nM

Compound: CC(C)(OCc1cc(-c2cccc(OC(F)(F)F)c2)n(Cc2ccccc2Cl)n1)C(=O)O [Example 34, 2-[[1-[(2-Chlorophenyl)methyl]-5-[3-(trifluoromethoxy)phenyl]pyrazol-3-yl]methoxy]-2-methyl-propanoic acid]
- IC50 (MCT4): 9.3 nM
- IC50 (MCT1): > 11000 nM

Compound: COC(=O)C(C)(C)OCc1cc(-c2cccc(OC)c2)n(Cc2ccccc2Cl)n1 [Example 82, Methyl 2-[[1-[(2-chlorophenyl)methyl]-5-(3-methoxyphenyl)pyrazol-3-yl]methoxy]-2-methyl-propanoate]
- IC50 (MCT4): 460 nM
- IC50 (MCT1): 16000 nM

Compound: COc1cccc(-c2cc(COC(C)(C)C(=O)O)nn2Cc2ccccc2C(C)C)c1 [Example 31, 2-[[1-[(2-Isopropylphenyl)methyl]-5-(3-methoxyphenyl)pyrazol-3-yl]methoxy]-2-methyl-propanoic acid]
- IC50 (MCT4): 53 nM
- IC50 (MCT1): 42000 nM

Compound: COc1ccc(Cn2nc(COC(C)(C)C(=O)O)cc2-c2cccc(OCC(C)C)c2)cc1 [Example 63, 2-([1-[(4-methoxyphenyl)methyl]-5-[3-(2-methylpropoxy)phenyl]-1H-pyrazol-3-yl]methoxy)-2-methylpropanoic acid]
- IC50 (MCT4): 37 nM
- IC50 (MCT1): 17000 nM

Compound: COc1cccc(Cn2nc(COC(C)(C)C(=O)O)cc2-c2cccc(OCC(C)C)c2)c1 [Example 62, 2-([1-[(3-methoxyphenyl)methyl]-5-[3-(2-methylpropoxy)phenyl]-1H-pyrazol-3-yl]methoxy)-2-methylpropanoic acid]
- IC50 (MCT4): 33 nM
- IC50 (MCT1): 27000 nM

Compound: CC(C)(OCc1cc(-c2cccc(CN3CCOCC3)c2)n(Cc2ccccc2Cl)n1)C(=O)O [Example 40, 2-[[1-[(2-Chlorophenyl)methyl]-5-[3-(morpholinomethyl)phenyl]pyrazol-3-yl]methoxy]-2-methyl-propanoic acid]
- IC50 (MCT4): 520 nM
- IC50 (MCT1): > 100000 nM

Compound: COc1cccc(-c2cc(COC(C)(C)C(=O)NS(C)(=O)=O)nn2Cc2ccccc2Cl)c1 [Example 81, 2-[[1-[(2-chlorophenyl)methyl]-5-(3-methoxyphenyl)pyrazol-3-yl]methoxy]-2-methyl-N-methylsulfonyl-propanamide]
- IC50 (MCT4): 6300 nM
- IC50 (MCT1): 6600 nM

Compound: CC(C)(OCc1cc(-c2cccc(OCC3CCC3)c2)n(Cc2ccccc2Cl)n1)C(=O)O [Example 42, 2-[[1-[(2-Chlorophenyl)methyl]-5-[3-(cyclobutylmethoxy)phenyl]pyrazol-3-yl]methoxy]-2-methyl-propanoic acid]
- IC50 (MCT4): 2.6 nM

Compound: CC(C)(OCc1cc(Oc2ccccc2)n(Cc2ccccc2Cl)n1)C(=O)O [Example 76, 2-([1-[(2-Chlorophenyl)methyl]-5-phenoxy-1H-pyrazol-3-yl]methoxy)-2-methylpropanoic Acid]
- IC50 (MCT4): 400 nM
- IC50 (MCT1): 38000 nM

Compound: CC(C)Oc1cccc(-c2cc(COC(C)(C)C(=O)O)nn2Cc2ccccc2Br)c1 [Example 29, 2-[[1-[(2-Bromophenyl)methyl]-5-(3-isopropoxyphenyl)pyrazol-3-yl]methoxy]-2-methyl-propanoic acid]
- IC50 (MCT4): 3.7 nM
- IC50 (MCT1): 16000 nM

Compound: CC(C)(OCc1cc(-c2ccsc2)n(Cc2ccccc2Cl)n1)C(=O)O [Example 24, 2-[[1-[(2-Chlorophenyl)methyl]-5-(3-thienyl)pyrazol-3-yl]methoxy]-2-methyl-propanoic acid]
- IC50 (MCT4): 30 nM
- IC50 (MCT1): > 100000 nM

Compound: COc1cccc(-c2cc(COC(C)(C)C(=O)O)nn2Cc2ccccc2Br)c1 [Example 30, 2-[[1-[(2-Bromophenyl)methyl]-5-(3-methoxyphenyl)-1H-pyrazol-3-yl]methoxy]-2-methylpropanoic acid]
- IC50 (MCT4): 8.8 nM
- IC50 (MCT1): 27000 nM

Compound: COCc1cccc(-c2cc(COC(C)(C)C(=O)O)nn2Cc2ccccc2Cl)c1 [Example 52, 2-([1-[(2-chlorophenyl)methyl]-5-[3-(methoxymethyl)phenyl]-1H-pyrazol-3-yl]methoxy)-2-methylpropanoic acid]
- IC50 (MCT4): 190 nM
- IC50 (MCT1): 84000 nM

Compound: COc1cccc(-c2cc(COC3(C(=O)O)CCC3)nn2Cc2ccccc2Cl)c1 [Example 41, 1-[[1-[(2-Chlorophenyl)methyl]-5-(3-methoxyphenyl)pyrazol-3-yl]methoxy]cyclobutanecarboxylic acid]
- IC50 (MCT4): 55 nM
- IC50 (MCT1): 1200 nM

Compound: CC(C)(OCc1cc(-c2cccc(NS(C)(=O)=O)c2)n(Cc2ccccc2Cl)n1)C(=O)O [Example 71, 2-([1-[(2-chlorophenyl)methyl]-5-(3-methanesulfonamidophenyl)-1H-pyrazol-3-yl]methoxy)-2-methylpropanoic Acid]
- IC50 (MCT4): 34000 nM
- IC50 (MCT1): 64000 nM

Compound: CN(C)c1cccc(-c2cc(COC(C)(C)C(=O)O)nn2Cc2ccccc2Cl)c1 [Example 50, 2-([1-[(o-Chlorophenyl)methyl]-5-[m-(dimethylamino)phenyl]-1H-pyrazol-3-yl]methoxy)-2-methylpropionic acid]
- IC50 (MCT4): 70 nM
- IC50 (MCT1): 34000 nM

Compound: CC(C)(OCc1cc(-c2cccc(OCC3CCOCC3)c2)n(Cc2ccccc2Cl)n1)C(=O)O [Example 45, 2-[[1-[(2-Chlorophenyl)methyl]-5-[3-(tetrahydropyran-4-ylmethoxy)phenyl]pyrazol-3-yl]methoxy]-2-methyl-propanoic acid]
- IC50 (MCT4): 19 nM
- IC50 (MCT1): 12000 nM

Compound: CC(C)(OCc1cc(-c2cccc(OCC3COC3)c2)n(Cc2ccccc2Cl)n1)C(=O)O [Example 80, 2-[[1-[(2-Chlorophenyl)methyl]-5-[3-(oxetan-3-ylmethoxy)phenyl]pyrazol-3-yl]methoxy]-2-methyl-propanoic Acid]
- IC50 (MCT4): 81 nM

Compound: COc1cccc(-c2cc(COC(C)(C)C(=O)O)nn2-c2ccc(Cl)cc2)c1 [Example 59, 2-[[1-(4-chlorophenyl)-5-(3-methoxyphenyl)-1H-pyrazol-3-yl]methoxy]-2-methylpropanoic acid]
- IC50 (MCT1): 81000 nM

Compound: COc1cccc(-c2cc(COC(C)(C)C(=O)O)nn2-c2ccccn2)c1 [Example 56, 2-[[5-(3-methoxyphenyl)-1-(pyridin-2-yl)-1H-pyrazol-3-yl]methoxy]-2-methylpropanoic acid]
- IC50 (MCT1): > 133000 nM

Compound: COc1cccc(-c2cc(COC(C)(C)C(=O)O)nn2-c2cccc(Cl)c2)c1 [Example 58, 2-[[1-(3-chlorophenyl)-5-(3-methoxyphenyl)-1H-pyrazol-3-yl]methoxy]-2-methylpropanoic acid]
- IC50 (MCT1): 78000 nM

Compound: CC(C)(OCc1cc(Cc2ccccc2)n(Cc2ccccc2Cl)n1)C(=O)O [Example 77, 2-([5-Benzyl-1-[(2-chlorophenyl)methyl]-1H-pyrazol-3-yl]methoxy)-2-methylpropanoic Acid]
- IC50 (MCT1): 9000 nM
